This note sets out measurements from US9980948B2, “Azaindole derivative having AMPK-activating activity” (Shionogi & Co., Ltd., priority 2014, dated 2018).

This experiment concerns the target T1, Human AMPK α2β2γ1 (Homo sapiens, UniProt O43741+P54646).
T1 construct: The full length cDNAs of human AMPK β2 (NM_005399.3) and human AMPK α2 (NM_006252.3); The full length cDNAs of human AMPK β2 (NM_005399.3); the full length cDNA of human AMPK γ1 (NM_002733.3) had been inserted into pET28b(+); 6xHis (N); made in house; host or cells: Escherichia coli BL21 CodonPlus (DE3)-RTL (AMPK); BL21 Star (DE3) (CaMKKβ)
The experiment is described as follows: Test Example 2: evaluation of an activator for AMP-activated protein kinase (AMPK), human AMPK α2β2γ1 phosphorylated with CaMKK2, FL-Peptide 7 mobility shift. It counts as biochemical. The settings on record: for EC150 (compound concentration showing 150% relative to the control (100%)): human AMPK α2β2γ1, 0.2 mM ATP final, 25° C., 2 hours; for Emax: read-out: Emax (maximum rate of increase in activity within the measurement range). On the procedure:
The full length cDNAs of human AMPK β2 (NM_005399.3) and human AMPK α2 (NM_006252.3) were inserted into the MCS1 and MCS2 of the pETDuet-1 vector to prepare a human AMPK β2 and human AMPK α2 (6× His tag at the 5′ terminus) expressing plasmid. The plasmid was cotransfected with an expression plasmid, in which the full length cDNA of human AMPK γ1 (NM_002733.3) had been inserted into pET28b(+), into BL21 CodonPlus (DE3)-RTL to obtain an expression strain. The expression strain was cultured in TB medium, followed by induction with 0.5 mM IPTG, and cultured at 25° C. for 3 hours and then harvested.
An expression vector, in which the full length cDNA of human CAMKK β (NM_172226.1) had been inserted into pGEX-6P-3, was transfected into BL21 Star (DE3). The expression strain was cultured in TB medium, followed by induction with 0.5 mM IPTG, and cultured at 25° C. for 3 hours and then harvested.
Thus, phosphorylation treatment was carried out as pretreatment.
Human AMPK α2β2γ1 in an amount to give a conversion rate of approximately 10% by reaction for 2 hours, and CaMKK2 in an amount capable of sufficiently imparting activity to AMPK for one hour were mixed in a buffer solution consisting of a 50 mM HEPES-NaOH buffer solution (pH 7.0), 100 mM NaCl, 5 mM magnesium chloride, 0.1% bovine serum albumin, 0.2 mM sodium orthovanadate(V), 1 mM ethylene glycol-bis(2-aminoethyl ether)-N,N,N′,N′-tetraacetic acid (EGTA), 5 mM disodium β-glycerophosphate, 1 mM dithiothreitol and 0.2 mM ATP, and the obtained liquid was left to stand at 25° C. for 1 to 1.5 hours to sufficiently phosphorylate AMPK.
The obtained liquid was left to stand for 10 minutes.
The obtained liquid was allowed to react at 25° C. for 2 hours, and 10 μl of 20 mM EDTA was then added thereto to stop the reaction.
To detect phosphorylated fluorescent substrates, the reaction liquid was applied to a measuring device, LabChip EZ Reader II manufactured by Caliper Life Science, Inc., for detecting fluorescence by using differences in mobility due to differences in charge. The setting conditions for the device were pressure, −1.5 PSI; upstream voltage, −2250 V; downstream voltage, −400 V; post sample buffer sip time, 40 seconds; final delay, 120 seconds; and peak order, Product First.
A conversion rate was calculated from the peak heights of the resulting substrate and product. The conversion rate when not containing a compound was used as a control, and a concentration dependent curve was made by plotting the rate of increase in activity to the control at each concentration of a compound.

[1] abbreviates: human AMPK α2β2γ1, relative to control (100%).

Like-named read-outs stand apart in the source and are kept apart here.

T1 sequence (P54646 whole entry): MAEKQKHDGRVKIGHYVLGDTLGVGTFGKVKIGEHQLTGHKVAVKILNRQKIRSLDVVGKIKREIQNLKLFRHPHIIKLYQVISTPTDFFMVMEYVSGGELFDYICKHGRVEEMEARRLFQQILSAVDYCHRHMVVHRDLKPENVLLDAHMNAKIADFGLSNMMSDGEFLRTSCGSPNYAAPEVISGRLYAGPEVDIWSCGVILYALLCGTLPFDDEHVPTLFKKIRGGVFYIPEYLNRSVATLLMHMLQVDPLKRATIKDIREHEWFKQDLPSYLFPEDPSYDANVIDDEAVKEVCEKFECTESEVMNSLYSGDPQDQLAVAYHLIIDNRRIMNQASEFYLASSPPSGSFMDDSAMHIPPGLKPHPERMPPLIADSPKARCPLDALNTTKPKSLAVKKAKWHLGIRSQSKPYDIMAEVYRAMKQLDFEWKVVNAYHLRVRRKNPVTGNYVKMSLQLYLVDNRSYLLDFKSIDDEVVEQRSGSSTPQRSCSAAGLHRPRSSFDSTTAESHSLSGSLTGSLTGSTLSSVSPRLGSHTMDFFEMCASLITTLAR
T1 sequence (O43741 whole entry): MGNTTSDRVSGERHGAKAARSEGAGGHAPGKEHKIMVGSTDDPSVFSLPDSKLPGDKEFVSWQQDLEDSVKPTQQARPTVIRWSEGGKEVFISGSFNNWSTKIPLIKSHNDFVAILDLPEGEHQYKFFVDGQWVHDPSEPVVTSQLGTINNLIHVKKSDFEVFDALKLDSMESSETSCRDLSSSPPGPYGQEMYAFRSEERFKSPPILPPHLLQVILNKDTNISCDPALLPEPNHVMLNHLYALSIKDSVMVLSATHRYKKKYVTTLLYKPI
T1 sequence (P54619 whole entry partner): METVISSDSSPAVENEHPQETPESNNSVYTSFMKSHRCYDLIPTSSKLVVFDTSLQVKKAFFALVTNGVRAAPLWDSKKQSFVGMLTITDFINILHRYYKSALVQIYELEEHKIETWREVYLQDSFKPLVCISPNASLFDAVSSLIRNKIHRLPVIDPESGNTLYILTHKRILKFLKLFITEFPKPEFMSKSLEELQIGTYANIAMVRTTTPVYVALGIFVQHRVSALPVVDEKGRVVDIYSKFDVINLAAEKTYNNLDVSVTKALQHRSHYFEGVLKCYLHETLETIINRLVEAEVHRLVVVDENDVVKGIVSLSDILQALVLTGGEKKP

The term Emax denotes the greatest response seen or fitted, relative to the assay's reference. For the compound `O=C(CO)NCCCOc1ccc(-c2nc3cc(O[C@@H]4CO[C@H]5[C@@H]4OC[C@H]5O)[nH]c3cc2F)cc1` [Compound I-3-31], the “EC150 (compound concentration showing 150% relative to the control (100%))” value was 55 nM. The Emax under setting [1] came to 505%.

`O[C@@H]1CO[C@H]2[C@@H]1OC[C@H]2Oc1cc2nc(-c3ccc(N4CCOCC4)cc3F)c(C(F)(F)F)cc2[nH]1` [Compound I-3-39]: the “EC150 (compound concentration showing 150% relative to the control (100%))” value was 200 nM. In addition, under setting [1], the Emax amounted to 491%.

`CS(C)(=O)=Nc1ccc(-c2ccc(-c3nc4cc(O[C@@H]5CO[C@H]6[C@@H]5OC[C@H]6O)[nH]c4cc3F)cc2)cc1` [Compound I-3-40]: the “EC150 (compound concentration showing 150% relative to the control (100%))” value amounted to 0.91 nM and the Emax was 491%.

`COc1cc(C2=CCOCC2)ccc1-c1nc2cc(O[C@@H]3CO[C@H]4[C@@H]3OC[C@H]4O)[nH]c2cc1F` [Compound I-3-41]: the “EC150 (compound concentration showing 150% relative to the control (100%))” value is given as 31 nM. Moreover, under setting [1], the Emax worked out at 500%.

Take `CS(=N)(=O)c1ccc(-c2ccc(-c3nc4cc(O[C@@H]5CO[C@H]6[C@@H]5OC[C@H]6O)[nH]c4cc3F)cc2)cc1` (stereo partly drawn) [Compound I-3-43]: the “EC150 (compound concentration showing 150% relative to the control (100%))” value is given as 0.84 nM. For the same compound, the Emax under setting [1] came to 538%.

Take `CN=S(C)(=O)c1ccc(-c2ccc(-c3nc4cc(O[C@@H]5CO[C@H]6[C@@H]5OC[C@H]6O)[nH]c4cc3F)cc2)cc1` (stereo partly drawn) [Compound I-4-1]: the “EC150 (compound concentration showing 150% relative to the control (100%))” value is on record as 1.4 nM. The Emax under setting [1] worked out at 496%.

With `CS(C)(=O)=Nc1ccc(-c2ccc(-c3nc4cc(O[C@@H]5CO[C@H]6[C@@H]5OC[C@H]6O)[nH]c4cc3F)c(F)c2)cc1` [Compound I-4-5], the “EC150 (compound concentration showing 150% relative to the control (100%))” value came out at 3.2 nM. For the same compound, the Emax under setting [1] came to 510%.

Consider `CS(C)(=O)=NC1CC=C(c2ccc(-c3nc4cc(O[C@@H]5CO[C@H]6[C@@H]5OC[C@H]6O)[nH]c4cc3F)cc2)CC1` (stereo partly drawn) [Compound I-4-17], for which the “EC150 (compound concentration showing 150% relative to the control (100%))” value turned out to be 2.9 nM. The Emax under setting [1] is 511%.

In the case of `CN=S(C)(=O)c1ccc(-c2ccc(-c3nc4cc(O[C@@H]5CO[C@H]6[C@@H]5OC[C@H]6O)[nH]c4cc3C(F)(F)F)cc2)cc1` (stereo partly drawn) [Compound I-4-18], the “EC150 (compound concentration showing 150% relative to the control (100%))” value is reported as 9.5 nM. For the same compound, the Emax under setting [1] amounted to 598%.

As for `CS(=O)(=NCCO)c1ccc(-c2ccc(-c3nc4cc(O[C@@H]5CO[C@H]6[C@@H]5OC[C@H]6O)[nH]c4cc3F)cc2)cc1` (stereo partly drawn) [Compound I-4-31], the “EC150 (compound concentration showing 150% relative to the control (100%))” value came to 3.1 nM. The Emax under setting [1] was determined as 674%.

Turning to `CNS(=O)(=O)Nc1ccc(-c2ccc(-c3nc4cc(O[C@@H]5CO[C@H]6[C@@H]5OC[C@H]6O)[nH]c4cc3F)cc2)cc1` [Compound I-4-34], the “EC150 (compound concentration showing 150% relative to the control (100%))” value is listed as 4 nM. Also, under setting [1], the maximal response (Emax) was 431%.

Take `COC(=O)Nc1ccc(-c2ccc(-c3nc4cc(O[C@@H]5CO[C@H]6[C@@H]5OC[C@H]6O)[nH]c4cc3F)cc2)cc1` [Compound I-4-35]: the “EC150 (compound concentration showing 150% relative to the control (100%))” value was determined as 10 nM. Also, the Emax under setting [1] was determined as 447%.

Consider `CN=S(C)(=O)c1ccc(-c2ccc(-c3nc4cc(O[C@@H]5CO[C@H]6[C@@H]5OC[C@H]6O)[nH]c4cc3F)cc2)cc1` (stereo partly drawn) [Compound I-4-36], for which the “EC150 (compound concentration showing 150% relative to the control (100%))” value worked out at 2.3 nM. The Emax under setting [1] was 510%.

For the compound `CN=S(C)(=O)c1ccc(-c2ccc(-c3nc4cc(O[C@@H]5CO[C@H]6[C@@H]5OC[C@H]6O)[nH]c4cc3F)cc2)cc1` (stereo partly drawn) [Compound I-4-37], the “EC150 (compound concentration showing 150% relative to the control (100%))” value amounted to 1.5 nM. Further, under setting [1], the “Emax (maximum rate of increase in activity within the measurement range)” value stood at 502%.

`CNS(=O)(=O)c1ccc(-c2ccc(-c3nc4cc(O[C@@H]5CO[C@H]6[C@@H]5OC[C@H]6O)[nH]c4cc3F)cc2)cc1` [Compound I-4-39]: the “EC150 (compound concentration showing 150% relative to the control (100%))” value was 1.9 nM. Also, under setting [1], the Emax was 479%.

Turning to `CS(=O)(=O)c1ccc(-c2ccc(-c3nc4cc(O[C@@H]5CO[C@H]6[C@@H]5OC[C@H]6O)[nH]c4cc3F)cc2)nc1` [Compound I-4-41], the “EC150 (compound concentration showing 150% relative to the control (100%))” value worked out at 1.4 nM. The Emax under setting [1] came out at 441%.

In the case of `CCS(C)(=O)=Nc1ccc(-c2ccc(-c3nc4cc(O[C@@H]5CO[C@H]6[C@@H]5OC[C@H]6O)[nH]c4cc3F)cc2)cc1` (stereo partly drawn) [Compound I-4-43], the “EC150 (compound concentration showing 150% relative to the control (100%))” value is 1.3 nM. Also, the Emax under setting [1] worked out at 453%.

For `NC(=O)Nc1ccc(-c2ccc(-c3nc4cc(O[C@@H]5CO[C@H]6[C@@H]5OC[C@H]6O)[nH]c4cc3F)cc2)cc1` [Compound I-4-44], the “EC150 (compound concentration showing 150% relative to the control (100%))” value amounted to 1.6 nM. For the same compound, the Emax under setting [1] stood at 518%.

For the compound `COC(=O)NC1CCN(c2ccc(-c3nc4cc(O[C@@H]5CO[C@H]6[C@@H]5OC[C@H]6O)[nH]c4cc3F)cc2)CC1` [Compound I-4-53], the “EC150 (compound concentration showing 150% relative to the control (100%))” value came out at 10 nM. Further, under setting [1], the Emax came to 509%.

Regarding `CS(=O)(=O)Nc1ccc(-c2ccc(-c3nc4cc(O[C@@H]5CO[C@H]6[C@@H]5OC[C@H]6O)[nH]c4cc3F)cc2)nc1` [Compound I-4-56], the “EC150 (compound concentration showing 150% relative to the control (100%))” value is given as 5.8 nM. For the same compound, under setting [1], the Emax was 396%.

For the compound `COC(=O)NC1CC=C(c2ccc(-c3nc4cc(O[C@@H]5CO[C@H]6[C@@H]5OC[C@H]6O)[nH]c4cc3F)cc2)CC1` (stereo partly drawn) [Compound I-4-58], the “EC150 (compound concentration showing 150% relative to the control (100%))” value stood at 4.3 nM. For the same compound, the Emax under setting [1] was found to be 486%.
